Data reported in patent US4618692A, “4-carbamoyloxy-oxazaphosphorins” (Asta-Werke Aktiengesellschaft, priority 1984, dated 1986).

Experiment: cytotoxicity in vitro (general statement)
Type: cell-based

In the case of O=P1(N(CCCl)CCCl)NCCCO1 (stereo not shown) [cyclophosphamide, 2-[bis-(2-chloroethyl)-amino]-2-oxo-tetrahydro-2H-1,3,2-oxazaphosphorin], the cytotoxicity in vitro is reported as “practically no cytotoxic effect in vitro”.
